Experiments:
Gp = conditions: relative to natural hatching factor; cited from earlier work
Globodera pallida eggs = assay: Hatching accelerating effect evaluation test for Globodera pallida (liquid immersion test); assay type: in vivo; conditions: 1 mL of 2 ppm test reagent solution added to 1 mL egg suspension; 16° C.; about 2 weeks; two replicates
Protocol: A predetermined amount of compound (I) was dissolved in an aqueous solution containing 0.05% (v/v) of polyoxyethylene sorbitan monolaurate (Tween20) to prepare a 100 ppm solution of compound (I).
The 100 ppm solution of compound (I) was further diluted with a 0.05% (v/v) Tween20 aqueous solution to prepare a test reagent solution with a concentration of compound (I) of 2 ppm.
The cysts of Globodera pallida increased in a greenhouse before the previous year were isolated from the soil, immersed in distilled water and kept at 16° C. for about 2 weeks were crushed with a scalpel and the eggs were taken out to obtain an egg suspension. After preparing a density of approximately 600 eggs per mL, Tween 20 was added to a concentration of 0.05% (v/v). 1 mL of this egg suspension was put into a 13.5 mL screw cap glass vial (inner diameter: 2.1 cm, height: 4.8 cm), and 1 mL each of a test reagent solution with a concentration of compound (I) of 2 ppm was added. It was covered and kept at 16° C.
About 2 weeks later, 1 mL was taken out, and the number of hatching larvae and the number of eggs were counted under a stereomicroscope. Two replicates were installed for each compound, and the average hatching rate was calculated.

Globodera pallida [1] = assay: Reduction test of Globodera pallida egg density (pot test); assay type: in vivo; conditions: 30 days, three pots; for Average density reduction rate at 10 ppm (%): 32 mL of 10 ppm test reagent solution in 800 mL field soil; for Average density reduction rate at 100 ppm (%): 32 mL of 100 ppm test reagent solution in 800 mL field soil
Protocol: After 20 mg of compound (I) was dissolved in 1 mL of dimethylsulfoxide, 199 mL of a 0.1% polyoxyethylene sorbitan monolaurate aqueous solution was added thereto, to obtain a test reagent solution with a concentration of compound (I) of 100 ppm. Further, this was diluted 10-fold with distilled water, to prepare a 10 ppm test reagent solution.
Soil was collected from a field infected with Globodera pallida, and the egg density was investigated, as follows. The cysts were separated from 100 g of the dried soil by dry flotation-sieving method and crushed to release nematode eggs, and the number of eggs was counted under a stereomicroscope. This was taken as the initial density.
32 mL of the test reagent solution adjusted to 100 ppm or 10 ppm was added to 800 mL of the collected field soil, followed by stirring well. It was packed in a plastic pot (upper diameter: 10.5 cm, height: 22.5 cm), and placed in a greenhouse without any planting for 30 days. Each pot was watered with 26 mL of distilled water every 6 to 7 days.
After 30 days, the soil was spread on an aluminum bat and air-dried, and the cysts were separated from 100 g of the dry soil in the same manner as above, to count the number of remaining eggs (density after treatment). Three pots were installed per concentration for each compound, and the average density reduction rate was calculated from the initial density and the density after treatment.

Globodera pallida [2] = assay: Reduction test of Globodera pallida egg density (field plot test); assay type: in vivo; conditions: for Gp density reduction rate: about 80 days, average of four plots
Protocol: With reference to Formulation Example 4, a 10% solution of compound No. 2 was prepared. This 10% solution was diluted with distilled water, to prepare test reagent solutions with concentrations of 300 ppm, 30 ppm, and 3 ppm.
Round plots (diameter:30 cm) were installed in a field infected with Globodera pallida, and the reducing effect of reagent solution treatment on the nematode egg density in soil was investigated. Each plot was prepared by burying a cylinder (30 cm in diameter and 25 cm in height) made of polyethylene sheet to a depth of 20 cm. Test plots were installed in the field and soil samples in each plot were collected for the initial density survey. Then, the test reagent solution of each concentration was sprayed at a ratio of 5 or 1 L per square meter and the soil in the plot was mixed with a shovel to a depth of 15 cm. As a result, treatments with four different doses of compound (1500, 300, 30 and 3 g per 10 a) were prepared.
About 80 days later, the soil in each plots was collected, and the nematode egg density in the soil was investigated, as follows. The cysts were separated from 100 g of dried soil by a sieving cyst flow method, crushed with a scalpel to extract eggs, suspended in distilled water to extract a certain amount, and the number of eggs was counted under a stereomicroscope.
Four plots were installed for each concentration, and the average density reduction rate was calculated from the initial density and final density.

Compound: [Na+].[Na+].[Na+].[O]=[V]([O-])([O-])[O-] [sodium orthovanadate]
- Hatching activity, % of that of the natural hatching factor (Gp): ~60%

Compound: CC1(C)NC(=O)CC1c1ccc(Br)cc1 (stereo not drawn) [Compound 4, 5,5-dimethyl-4-(4-bromophenyl)-2-pyrrolidinone]
- Average hatching rate (%) (Globodera pallida eggs): 97.9%
- Average density reduction rate at 10 ppm (%) (Globodera pallida [1]): 98.8%
- Average density reduction rate at 100 ppm (%) (Globodera pallida [1]): 98.9%

Compound: Cc1ccc(C2CC(=O)OC2(C)C)cc1 (stereo not drawn) [Compound 18, 5,5-dimethyl-4-(p-tolyl)dihydrofuran-2(3H)-one]
- Average hatching rate (%) (Globodera pallida eggs): 97.1%
- Average density reduction rate at 10 ppm (%) (Globodera pallida [1]): 81.7%
- Average density reduction rate at 100 ppm (%) (Globodera pallida [1]): 96.2%

Compound: CC1=NN(c2ccc([N+](=O)[O-])cc2)C(=O)C1[N+](=O)[O-] (stereo not drawn) [picrolonic acid]
- Hatching activity, % of that of the natural hatching factor (Gp): about 30%

Compound: sodium metavanadate
- Hatching activity, % of that of the natural hatching factor (Gp): ~70%

Compound: Cc1ccc(C2CCC(=O)NC2(C)C)cc1 (stereo not drawn) [Compound A-3, 6,6-dimethyl-5-(p-tolyl)piperidin-2-one]
- Average hatching rate (%) (Globodera pallida eggs): 97.2%
- Average density reduction rate at 10 ppm (%) (Globodera pallida [1]): 94.9%
- Average density reduction rate at 100 ppm (%) (Globodera pallida [1]): 97.2%

Compound: Cc1ccc(C2=CC(=O)OC2(C)C)c(C)c1 [Compound D-15]
- Average hatching rate (%) (Globodera pallida eggs): 94.9%
- Average density reduction rate at 10 ppm (%) (Globodera pallida [1]): 85.8%
- Average density reduction rate at 100 ppm (%) (Globodera pallida [1]): 98.2%

Compound: CC1(C)NC(=O)CC1c1ccc(Cl)cc1 (stereo not drawn) [Compound 3, 5,5-dimethyl-4-(4-chlorophenyl)-2-pyrrolidinone]
- Average hatching rate (%) (Globodera pallida eggs): 95.2%
- Average density reduction rate at 10 ppm (%) (Globodera pallida [1]): 97.4%
- Average density reduction rate at 100 ppm (%) (Globodera pallida [1]): 98.5%

Compound: CC1(C)NC(=O)CC1c1ccc(F)c(F)c1 (stereo not drawn) [Compound 12, 5,5-dimethyl-4-(3,4-difluoro-phenyl)-2-pyrrolidinone]
- Average hatching rate (%) (Globodera pallida eggs): 65.4%
- Average density reduction rate at 10 ppm (%) (Globodera pallida [1]): 97.7%
- Average density reduction rate at 100 ppm (%) (Globodera pallida [1]): 98.8%

Compound: N#C[S-].[Na+] [sodium thiocyanate]
- Hatching activity, % of that of the natural hatching factor (Gp): about 30%

Compound: Cc1ccc(C2CC(=O)NC2(C)C)cc1 (stereo not drawn) [Compound 2, 5,5-dimethyl-4-(4-methylphenyl)-2-pyrrolidinone]
- Average hatching rate (%) (Globodera pallida eggs): 94.3%
- Average density reduction rate at 10 ppm (%) (Globodera pallida [1]): 95.4%
- Average density reduction rate at 100 ppm (%) (Globodera pallida [1]): 98.0%
- Gp density reduction rate (Globodera pallida [2]; dose 3 g/10 a): 65.6%
- Gp density reduction rate (Globodera pallida [2]; dose 300 g/10 a): 94.4%
- Gp density reduction rate (Globodera pallida [2]; dose 1500 g/10 a): 98.4%
- Reduction of Gp density in the soil (Globodera pallida [2]; dose of 30 g or more per 10a): ≥ 80%
- Gp density reduction rate (Globodera pallida [2]; dose printed as 'g/10 a' (third dose level)): 88.8%

Source: US20260240154A1, “GLOBODERA PALLIDA CONTROL AGENT” (National Agriculture and Food Research Organization, priority 2021, published 2026)
